“And” between values parts separate entries of the source, which are not always exact repeats. Identical values can stand only once. Counter-ions that a name gives are not always drawn.
Assay: Example 2 plasma concentrations and pharmacokinetics after topical ocular, subcutaneous, intravitreal administration
Assay type: in vivo, male New Zealand White rabbits
Method: To measure the concentration of Compound 1 in plasma and ocular tissues following topical ocular, subcutaneous, and intravitreal administration, New Zealand White rabbits were administered Compound 1, and plasma and ocular samples were collected at pre-determined time points. Compound 1 formulations were prepared fresh on each day of dosing.
Ocular tissue samples from both eyes of each animal were collected and weights were recorded. Plasma and ocular tissue sample concentrations of Compound 1 were determined by LC-MS/MS.
New Zealand White rabbits weighing 2.5 to 3.5 kg were used on this study. Rabbits were housed one per cage. Animals were not fasted and only healthy animals with no ocular illness were used. Two rabbits per group were sacrificed at each of four ocular tissue sampling time points for a total of eight rabbits per group.
Animals were anesthetized for ocular (topical) and intravitreal dosing following the 12IA7 IACUC protocol. Each rabbit received a bolus dose of test formulation either via topical ocular administration 3 times daily on Days 1 and 2 (at 0, 6, and 12 hours), and once on Day 3 (at 0 hours) into both eyes; via intravitreal administration into both eyes once on Day 1 (at 0 hours); or via subcutaneous administration 2 times daily on Days 1 and 2 (at 0 and 8 hours) and once daily on Day 3 (at 0 hours). Doses were given within an approximately 1 hour window each day where applicable.
Each blood sample was collected on Day 3 post dose at pre-determined time points from the rabbits via an ear vessel and placed into chilled polypropylene tubes containing sodium heparin as an anticoagulant. Samples were spun by centrifuge at 4° C. and 3,000× g for 5 minutes. Samples were maintained chilled throughout processing. Each plasma sample was placed on dry ice and stored in a freezer at −60° C. to −80° C. pending bioanalysis.
An LC-MS/MS method was developed for the determination of Compound 1 in rabbit aqueous tissues (plasma, aqueous and vitreous humor) and solid ocular tissue samples. A pre-study standard curve was analyzed to determine the specificity, range, and lower limit of quantitation of the method. Plasma and tissue homogenate study samples were extracted and analyzed. All the samples were treated identically to the standards.
One eight-point standard curve was used in each analytical batch. To be accepted, each batch must have had at least five of eight standards with accuracy within ±20% of nominal, except at the lower limit of quantification (LLOQ), where ±25% was acceptable.
Pharmacokinetic parameters were calculated from the time course of the plasma concentration. The maximum plasma concentration (Cmax) and time to the maximum plasma drug concentration (Tmax) were the observed values for each concentration-time profiles. The area under the plasma drug concentration-time curve (AUClast, with last being from time 0 to the last quantifiable point) was calculated using the trapezoidal formula. The mean residence time MRTlast was calculated as a ratio of AUMClast (area under the first movement curve) to AUClast.

[1] = Group 1: topical ocular 1.2 mg/eye (~0.7 mg/kg/dose), 15% HPβCD + 1% dextrose solution
[2] = Group 1: topical ocular 1.2 mg/eye (~0.7 mg/kg/dose), 15% HPβCD + 1% dextrose, 0.50 hr
[3] = Group 1: topical ocular 1.2 mg/eye (~0.7 mg/kg/dose), 15% HPβCD + 1% dextrose, 1.0 hr
[4] = Group 1: topical ocular 1.2 mg/eye (~0.7 mg/kg/dose), 15% HPβCD + 1% dextrose, 2.0 hr
[5] = Group 1: topical ocular 1.2 mg/eye (~0.7 mg/kg/dose), 15% HPβCD + 1% dextrose, 4.0 hr
[6] = Group 2: subcutaneous 5 mg/kg/dose, 15% HPβCD + 1% dextrose solution
[7] = Group 2: subcutaneous 5 mg/kg/dose, 15% HPβCD + 1% dextrose solution, 0.25 hr
[8] = Group 2: subcutaneous 5 mg/kg/dose, 15% HPβCD + 1% dextrose solution, 0.50 hr
[9] = Group 2: subcutaneous 5 mg/kg/dose, 15% HPβCD + 1% dextrose solution, 1.0 hr
[10] = Group 2: subcutaneous 5 mg/kg/dose, 15% HPβCD + 1% dextrose solution, 2.0 hr
[11] = Group 2: subcutaneous 5 mg/kg/dose, 15% HPβCD + 1% dextrose solution, 4.0 hr
[12] = Group 2: subcutaneous solution, normalized by nominal dose 5 mg/kg
[13] = Group 4: intravitreal 2.5 mg/eye (~1.55 mg/kg), 10% HPβCD + 2% dextrose solution
[14] = Group 4: intravitreal 2.5 mg/eye (~1.55 mg/kg), 10% HPβCD + 2% dextrose solution, 1.0 hr
[15] = Group 4: intravitreal 2.5 mg/eye (~1.55 mg/kg), 10% HPβCD + 2% dextrose solution, 3.0 hr
[16] = Group 4: intravitreal 2.5 mg/eye (~1.55 mg/kg), 10% HPβCD + 2% dextrose solution, 6.0 hr
[17] = Group 4: intravitreal 2.5 mg/eye (~1.55 mg/kg), 10% HPβCD + 2% dextrose solution, 24.0 hr
[18] = Group 4: intravitreal 2.5 mg/eye (~1.55 mg/kg), 10% HPβCD + 2% dextrose solution, 48.0 hr

COC(=O)N[C@@H](Cc1ccccc1)C(=O)N[C@@H](Cc1ccc(NS(=O)(=O)O)cc1)c1csc(-c2cccs2)n1 [Compound 1 sodium salt]
plasma AUClast (± SE) [1]: 11.8 ± 5.70 ng·h/mL and 11.8 ng·h/mL
plasma Cmax (± SE) [1]: 7.48 ± 5.53 ng/mL and 7.48 ng/mL
plasma MRTlast [1]: 2.98 h
plasma tmax [1]: 4.00 h
plasma tmax (Group 1: topical ocular 1.2 mg/eye (~0.7 mg/kg/dose), 15% HPβCD + 1% dextrose solution, listed as Compound 1 (sodium salt)): 4 h
plasma Average conc. [2]: 3.03 ng/mL
plasma Conc., individual rabbit [2]: 3.84 ng/mL and 2.21 ng/mL
plasma Average conc. [3]: 1.46 ng/mL
plasma Conc., individual rabbit [3]: 1.28 ng/mL and 1.63 ng/mL
plasma Average conc. [4]: 1.14 ng/mL
plasma Conc., individual rabbit [4]: 2.04 ng/mL and 0.241 ng/mL
plasma Average conc. [5]: 7.48 ng/mL
plasma Conc., individual rabbit [5]: 13.0 ng/mL and 1.95 ng/mL
plasma AUClast, dose normalized (Group 1: topical ocular, normalized by nominal dose 0.7 mg/kg): 16.8 ± 8.15 kg·ng·h/mL/mg and 16.8 kg·ng·h/mL/mg
plasma AUClast (± SE) [6]: 1555 ± 195 ng·h/mL and 1555 ng·h/mL
plasma AUC∞ [6]: 1560 ng·h/mL
plasma Cmax (± SE) [6]: 1525 ± 115 ng/mL and 1525 ng/mL
plasma MRTlast [6]: 0.87 h
plasma t1/2 [6]: 0.47 h
plasma tmax [6]: 0.25 h
plasma Average conc. [7]: 1525 ng/mL
plasma Conc., individual rabbit [7]: 1640 ng/mL and 1410 ng/mL
plasma Average conc. [8]: 1097 ng/mL
plasma Conc., individual rabbit [8]: 883 ng/mL and 1310 ng/mL
plasma Average conc. [9]: 646 ng/mL
plasma Conc., individual rabbit [9]: 664 ng/mL and 628 ng/mL
plasma Average conc. [10]: 180 ng/mL
plasma Conc., individual rabbit [10]: 55.5 ng/mL and 305 ng/mL
plasma Average conc. [11]: 7.76 ng/mL
plasma Conc., individual rabbit [11]: 7.98 ng/mL and 7.53 ng/mL
plasma AUClast, dose normalized [12]: 311 ± 38.9 kg·ng·h/mL/mg and 311 kg·ng·h/mL/mg
plasma AUC∞, dose normalized [12]: 312 kg·ng·h/mL/mg
plasma AUClast (± SE) [13]: 953 ± 91.1 ng·h/mL and 953 ng·h/mL
plasma AUC∞ [13]: 956 ng·h/mL
plasma Cmax (± SE) [13]: 39.8 ± 2.30 ng/mL and 39.8 ng/mL
plasma MRTlast [13]: 15.1 h
plasma t1/2 [13]: 8.08 h
plasma tmax [13]: 3.00 h
plasma Average conc. [14]: 32.3 ng/mL
plasma Conc., individual rabbit [14]: 33.2 ng/mL and 31.3 ng/mL
plasma Average conc. [15]: 39.8 ng/mL
plasma Conc., individual rabbit [15]: 37.5 ng/mL and 42.1 ng/mL
plasma Average conc. [16]: 36.8 ng/mL
plasma Conc., individual rabbit [16]: 44.3 ng/mL and 29.3 ng/mL
plasma Average conc. [17]: 16.9 ng/mL
plasma Conc., individual rabbit [17]: 19.0 ng/mL and 14.7 ng/mL
plasma Average conc. [18]: 2.58 ng/mL
plasma Conc., individual rabbit [18]: 2.70 ng/mL and 2.45 ng/mL
plasma Average conc. (Group 4: intravitreal 2.5 mg/eye (~1.55 mg/kg), 10% HPβCD + 2% dextrose solution, 72.0 hr): 0.27 ng/mL
